{"source": "patent US20100310674A1", "about": "“NOVEL COMPOSITION FOR TREATING THE SIDE EFFECTS OF ANTICANCER TREATMENTS” (TROPHOS, priority 2007, published 2010)", "key": {"[1]": {"test_system": "neuropathies induced by paclitaxel", "test": "Hypersensitivity to pain (mechanical allodynia 4 gVFH, mechanical hyperalgesia 15 gVFH) in rat model of neuropathies induced by paclitaxel", "type": "in vivo, rat (Sprague-Dawley)", "conditions": "for anti-allodynia (4 gVFH) / anti-hyperalgesia (15 gVFH): AUC D16-D40", "experimental": "Adult male Sprague-Dawley rats were used.\nPaclitaxel (6 mg/ml in a 50:50 mixture of Cremophor and ethanol) was diluted just before use with a […] sodium chloride solution at a concentration of 2 mg/ml and injected by intraperitoneal route in a volume of 1 ml/kg on days 0, 2, 4 and 6.\nFresh solutions of cholest-4-en-3 one oxime (Sigma) in corn oil were prepared each week at a concentration of 0.6 or 6.0 mg/ml. This solution was given to the animal by oral tube feeding in a volume of 5 ml/kg.\nThree groups of 12 animals treated with paclitaxel were formed: • group 1: cholest-4-en-3-one oxime at 3 mg/kg per os, daily for 17 days (day(−1)-day(15), commencing on the day before the first injection of paclitaxel and continuing for 9 days after the last injection of paclitaxel). On the days when the cholest-4-en-3-one oxime and the paclitaxel had to be administered, the cholest-4-en-3-one oxime was given at 9:00 h, and the paclitaxel at 13:00 h; • group 2: as above except that the cholest-4-en-3-one oxime was given at 30 mg/kg; • group 3: as above except that the animals received an identical volume of excipient (corn oil);\nThe animals were habituated to the test environment for 3 separate days and then 3 sessions per day were organized in order to establish the normal response to a von Frey hairs (VFH) stimulation exerting pressure of 4 g or 15 g (4 gVFH or 15 gVFH). Normal rats rarely withdraw from a stimulation with 4 gVFH; thus, an increase in response post treatment with paclitaxel is a sign of mechanical allodynia. Normal rats withdraw from a stimulation with 15 gVFH 10-20% of the time; thus an increased frequency of response to this stimulus indicates mechanical hyperalgesia.\nThe animals were placed in cages containing a metal mesh floor giving access to the soles of the animals' paws. Each mechanical stimulus was applied to the middle of the heel of the left hind paw. The presence or absence of withdrawal of the paw was noted. This was repeated 5 times on each hind paw and the animals' responses were summarized as a percentage of responses (5 withdrawals of the paw in response to a stimulation of 15 gVFH corresponded to a score of 50%).\nThe rats were habituated to the test environment for 3 days. Tests relating to the reference level of sensitivity at 4 g and 15 gVFH were carried out for 3 consecutive days; the average of the last two corresponded to the level of sensitivity before treatment with paclitaxel. The behaviour tests for testing the effects of paclitaxel commenced on day 16 and were repeated on days 19, 22, 25, 28, 31, 35 and 40, by an investigator ignorant of the treatments applied to each of the animals.\nThe area-under-the-curve values were calculated for each group during the period from D16 to D40 (from the start of the appearance of the pain due to the paclitaxel to the end of the experiment). The AUC values were analyzed with an ANOVA test followed by comparison “in pairs” with the group having received the excipient by Dunnett's t-test."}, "[2]": {"test_system": "cold allodynia induced by oxaliplatin", "test": "Cold allodynia (acetone drop) induced by cumulative doses of oxaliplatin in the rat", "type": "in vivo, rat (Sprague-Dawley)", "experimental": "The effect of the cholest-4-en-3-one oxime on cold allodynia induced by cumulative doses of oxaliplatin were evaluated in the rat. Adult male Sprague-Dawley rats weighing approximately 150 g were used. The oxaliplatin was injected by intra-peritoneal route at 3 mg/kg three times a week and for three weeks (total cumulative dose of 27 mg/kg). The paw withdrawal time as well as the amplitude of the animal's response to harmless thermal stimulations using a drop of acetone were measured in the rats before and after treatment by oxaliplatin on days 1 and 18 respectively, and then on each day of treatment with cholest-4-en-3-one oxime, from day 22 to day 25. The cholest-4-en-3-one oxime (1, 10 and 100 mg/kg once daily) was administered by oral route from day 22 to day 25 and the thresholds for withdrawal of the paw were measured 4 hours after administration of the cholest-4-en-3-one oxime. 7 to 9 rats were used per dose tested. For each animal, the reaction times at which the animals withdrew their hind paw following the deposition of the drop of acetone were calculated as the average of six consecutive tests carried out at 5-minute intervals by an investigator ignorant of the treatments applied to each of the animals. A limit of 20 seconds was imposed. The amplitude of the response to the drop of acetone was marked on a scale of 0 to 3: 0 (no response); 1 (rapid withdrawal of the paw); 2 (prolonged withdrawal of the paw); 3 (repeated withdrawal of the paw with licking and/or biting). The score of each of the six tests was totalled. A stock solution of cholest-4-en-3-one oxime in corn oil was prepared on the first day of the experimentation and administered once daily by oral tube feeding (5 ml/kg). The cholest-4-en-3-one oxime was reduced to a fine powder and mixed with the necessary quantity of vehicle in order to obtain concentrations of 0.2, 2 and 20 mg/ml, the mixture is then homogenized by magnetic stirring for at least 10 minutes. Stock solutions were kept at 4° C. between administrations. A statistical analysis was carried out using a two-way ANOVA test followed by Bonferroni's test in order to compare the effect of the test compound with respect to the vehicle."}, "[3]": {"test_system": "tactile allodynia induced by vincristine sulphate", "test": "Tactile allodynia induced by cumulative doses of vincristine sulphate in the rat (paw withdrawal threshold, Dynamic Plantar Aesthesiometer)", "type": "in vivo, rat (WISTAR)", "conditions": "for anti-allodynic effect on first day of administration: day 10", "experimental": "The effect of cholest-4-en-3-one oxime on tactile allodynia induced by cumulative doses of vincristine sulphate was evaluated in the rat. Adult male WISTAR rats weighing approximately 250 g were used. Vincristine sulphate was injected by intravenous route at 200 μg/kg on days 1, 4 and 6 (total cumulative dose of 600 μg/kg). The animal's paw withdrawal thresholds to harmless mechanical stimulation were measured in the rats on days 0, 3, 5, 7 and then every day from day 10 to day 14. The cholest-4-en-3-one oxime (10, 30 and 100 mg/kg once daily) was administered by oral route from day 10 to day 14 and the paw withdrawal thresholds were measured 4 hours after administration of the cholest-4-en-3-one oxime. 8 rats were used per tested dose. The mechanical stimulation thresholds at which the animals withdraw their hind paw in response to mechanical stimulations were measured using a Dynamic Plantar Aesthesiometer (Ugo Basile, Italy). Briefly, in a temperature-controlled room (approximately 22° C.) each animal was placed in a transparent cubic box made of Perspex (22×16.5×14 cm) containing a metal mesh floor giving access to the soles of its paws and left for 15 minutes before the test in order for it to acclimatize. A mechanical stimulus was applied to the left hind paw using a stainless filament (0.5 mm in diameter) exerting a force which increases linearly (2.5 g/sec). The force (g) at which the animal withdraws its paw was recorded automatically. Each paw withdrawal threshold was calculated as the average of three consecutive tests carried out at 5-minute intervals by an investigator ignorant of the treatments used on each of the animals. A 50 g limit was imposed in order to prevent tissue damage. A stock solution of cholest-4-en-3-one oxime in corn oil was prepared on the first day of the experiment and administered once daily by oral tube feeding (5 ml/kg). The cholest-4-en-3-one oxime was reduced to a fine powder and mixed with the necessary quantity of excipient in order to obtain concentrations of […], 6 and 20 mg/ml, the mixture is then homogenized by magnetic stirring for at least 10 minutes. Stock solutions were kept at 4° C. between administrations. A statistical analysis was carried out using a two-way ANOVA test followed by Tukey's test in order to compare the effect of the test compound with respect to the excipient."}, "[4]": {"conditions": "3 mg/kg per os daily for 17 days"}, "[5]": {"conditions": "30 mg/kg per os daily for 17 days"}}, "data": [{"smiles": "CC(C)CCC[C@@H](C)[C@H]1CC[C@H]2[C@@H]3CCC4=CC(=NO)CC[C@]4(C)[C@H]3CC[C@]12C", "note": "[cholest-4-en-3-one oxime]", "values": [{"measurement": "development of mechanical allodynia and hyperalgesia", "setting": "[1]; 3 mg/kg and 30 mg/kg per os daily day -1 to day 15, AUC D16 to D40, p<0.01", "result": "significantly inhibited"}, {"measurement": "anti-allodynia (4 gVFH)", "setting": "[1]; [4]", "result": 59, "unit": "%"}, {"measurement": "anti-hyperalgesia (15 gVFH)", "setting": "[1]; [4]", "result": 45, "unit": "%"}, {"measurement": "anti-allodynia (4 gVFH)", "setting": "[1]; [5]", "result": 53, "unit": "%"}, {"measurement": "anti-hyperalgesia (15 gVFH)", "setting": "[1]; [5]", "result": 40, "unit": "%"}, {"measurement": "anti-allodynic effect on first day of administration", "setting": "[2]; lower doses (1 and 10 mg/kg oral), day 22", "result": "no significant anti-allodynic effect"}, {"measurement": "anti-allodynic effect after daily treatment", "setting": "[2]; oral 100 mg/kg once daily, days 22 to 25", "result": "persisted"}, {"measurement": "effect on cold allodynia induced by oxaliplatin from third day of administration", "setting": "[2]; oral 1 and 10 mg/kg once daily, day 24, P<0.05", "result": "significantly reduced the cold allodynia"}, {"measurement": "effect on allodynia induced by oxaliplatin vs excipient", "setting": "[2]; single oral dose 100 mg/kg, day 22, P<0.05", "result": "significantly reduced the allodynia"}, {"measurement": "anti-allodynic effect on first day of administration", "setting": "[3]; oral 10 mg/kg, p=0.086", "result": "no significant anti-allodynic effect"}, {"measurement": "anti-allodynic effect on first day of administration", "setting": "[3]; oral 30 mg/kg, P=0.232", "result": "no significant anti-allodynic effect"}, {"measurement": "effect on allodynia induced by vincristine, daily treatment", "setting": "[3]; oral 10, 30 and 100 mg/kg once daily, days 11 to 14, P<0.05 in all cases", "result": "significantly alleviates the allodynia"}, {"measurement": "effect on allodynia induced by vincristine vs excipient", "setting": "[3]; single oral dose 100 mg/kg, day 10, measured 4 hours after administration, P<0.001", "result": "significantly alleviates the allodynia"}]}]}
